Data as given in ChEMBL document CHEMBL1128384, “Cardioselective antiischemic ATP-sensitive potassium channel openers. 2. Structure-activity studies on benzopyranylcyanoguanidines: modification of the benzopyran ring” (J Med Chem, 1995).

How the values were obtained:
Assay type in all cases: functional
Rattus norvegicus [1] = organism: Rattus norvegicus; experiment: In vitro anti-ischemic potency was determined by measurement of concentration necessary for increase in time to contracture by 25% in the globally ischemic rat hearts
Rattus norvegicus [2] = organism: Rattus norvegicus; experiment: Vasorelaxant potency was assessed by measurement of inhibition of methoxamine-contracted rat aorta
[3] = Ratio of anti-ischemic potency and vasorelaxant potency in rat.
Rattus norvegicus [4] = organism: Rattus norvegicus; experiment: Antiischemic potency was determined by increase in time to contracture at a concentration of 10 uM in the globally ischemic rat hearts

Compound	EC25 (Rattus norvegicus [1]) [µM]	IC50 (Rattus norvegicus [2]) [µM]	Ratio [3]	Increase (Rattus norvegicus [4]) [%]	Increase (Rattus norvegicus [1]) [%]
CC1(C)Oc2cc(-c3ncco3)c(-c3ncco3)cc2[C@@H](NC(=O)Nc2ccccc2)[C@@H]1O	13	1.4	9.3	–	–
CC1(C)C[C@H](/N=C(\NC#N)Nc2ccccc2)c2cc(C#N)ccc21	22	2.6	8.5	–	–
CC1(C)C[C@H](/N=C(\NC#N)Nc2ccccc2)c2cc(C#N)ccc2O1	–	14	–	0	–
CC1(C)C=C(NC(=O)Nc2ccccc2)c2cc(C#N)ccc2O1	–	17	–	7	–
CC(=O)O[C@H]1[C@H](NC(=O)Nc2ccccc2)c2cc(C#N)ccc2OC1(C)C	–	4.4	–	3	–
CC1(C)Oc2ccc(C#N)cc2[C@@H](NC(=O)Nc2ccccc2)[C@@H]1O	5.1	–	–	–	–
CC1(C)C[C@H](NC(=O)Nc2ccccc2)c2cc(C#N)ccc2O1	5.3	1.8	2.9	–	–
CC1(C)Oc2ccc(C#N)cc2[C@@H](NC(=O)Nc2ccccc2)[C@H]1O	103	6.2	16.5	–	–
CC1(C)C[C@H](NC(=O)Nc2ccccc2)c2cc(C#N)ccc21	9.4	1.3	7.2	–	–
CC(=O)c1ccc2c(c1)[C@@H](NC(=O)Nc1ccccc1)[C@H](O)C(C)(C)O2	4.5	1.2	3.8	–	–
CC1(C)C=C(/N=C(\NC#N)Nc2ccccc2)c2cc(C#N)ccc2O1	–	6.9	–	0	–
CC1(C)c2ccc([N+](=O)[O-])cc2[C@@H](NC(=O)Nc2ccccc2)[C@@H]1O	6.5	0.18	36.1	–	–
CC1(C)Oc2ccc(C(F)(F)F)cc2[C@@H](NC(=O)Nc2ccccc2)[C@@H]1O	2.7	1.1	2.5	–	–
N#Cc1ccc2c(c1)[C@@H](NC(=O)Nc1ccccc1)[C@H](O)CO2	–	–	–	6	–
CC1(C)Oc2ccc(C#N)cc2[C@@H](/N=C(\NC#N)Nc2ccccc2)[C@H]1O (relative stereo)	–	–	–	9	–
CC1(C)Oc2cc(-c3ncco3)c(-c3ncco3)cc2[C@@H](/N=C(\NC#N)Nc2ccccc2)[C@@H]1O (relative stereo)	–	8.8	–	–	6
CC1(C)Oc2ccc(C#N)cc2[C@@H](/N=C(\NC#N)Nc2ccccc2)[C@@H]1O (relative stereo)	11	1.4	7.9	–	–
CC(=O)O[C@H]1[C@H](/N=C(\NC#N)Nc2ccccc2)c2cc(C#N)ccc2OC1(C)C (relative stereo)	6	2.6	2.3	–	–
N#CN/C(=N\[C@@H]1c2cc(C#N)ccc2OC[C@H]1O)Nc1ccccc1 (relative stereo)	–	194	–	0	–
CC(=O)c1ccc2c(c1)[C@@H](/N=C(\NC#N)Nc1ccccc1)[C@H](O)C(C)(C)O2 (relative stereo)	8.5	4	2.1	–	–
CC1(C)c2ccc([N+](=O)[O-])cc2[C@@H](/N=C(\NC#N)Nc2ccccc2)[C@@H]1O (relative stereo)	10.7	–	18.8	–	–
CC1(C)Nc2ccc(C#N)cc2[C@@H](/N=C(\NC#N)Nc2ccccc2)[C@@H]1O (relative stereo)	–	–	–	0	–
CC1(C)Oc2ccc(C(F)(F)F)cc2[C@@H](/N=C(\NC#N)Nc2ccccc2)[C@@H]1O (relative stereo)	10	9.2	0.5	–	–
CC1(C)Oc2ccc(N)cc2[C@@H](/N=C(\NC#N)Nc2ccccc2)[C@@H]1O (relative stereo)	–	59.6	–	–	0
CC1(C)Oc2ccc(C#N)cc2[C@@H](N2CCCC2=O)[C@@H]1O [CROMAKALIM]	8.9	–	278.1	–	–
